From patent US6720343B2, “Oxadiazole derivatives having anticancer effects” (Shionogi & Co., Ltd., priority 2002, dated 2004) come the findings set out here.

SMILES strings stand for the structures. pIC50: −log10 of the molar value. Like-named read-outs stand apart in the source and are kept apart here.

The target of data set [1] is T1, MMP-9 (Homo sapiens, UniProt P14780).
T1 construct: purchased Calbiochem-Novabiochem International, Inc
The data set is described as follows: Assay for inhibitory activities on MMPs (fluorogenic peptide substrate), MMP-9. Type of data set: biochemical. The protocol:
MMP-9 was purchased from Calbiochem-Novabiochem International, Inc.
(§1) The enzymatic activity on MMPs was analyzed by the method described in “C. […] The substrate (MOCAc-Pro-Leu-Gly-Leu-A2Pr(DNP)-Ala-Arg-NH2) was purchased from Peptide Institute, Inc., Osaka, Japan.
(§2) The measurement of the inhibitory activities (IC50) was carried out by the following four methods;
(§3) A) Reaction with substrate, enzyme (MMPs) and inhibitor
(§4) B) Reaction with substrate and inhibitor, without enzyme
(§5) C) Reaction with substrate and enzyme (MMPs), without inhibitor
(§6) D) Reaction with substrate only
(§7) IC50 values were calculated by using the following formula and each fluorescence values of above four methods (A to D).
(§8) % inhibition={1−(A−B)/(C−D)}×100

In data set [2] the target is T2, MMP-8 Catalytic domain (Homo sapiens, UniProt P22894).
T2 construct: MMP-8 Catalytic domain (^99Phe˜^262Gly); His-tag; Enterokinase digestion site; made in house; host or cells: E. coli
T2 sequence (P22894 99-262): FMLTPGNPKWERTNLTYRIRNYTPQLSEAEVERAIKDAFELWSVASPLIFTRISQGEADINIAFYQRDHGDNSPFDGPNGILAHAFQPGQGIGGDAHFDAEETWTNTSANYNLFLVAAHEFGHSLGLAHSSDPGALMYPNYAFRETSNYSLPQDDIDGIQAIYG
The data set is described as follows: Assay for inhibitory activities on MMPs (fluorogenic peptide substrate), MMP-8. Type of data set: biochemical. As for the experimental part: The DNA fragment was cloned into an E. coli expression vector, pTrc99A containing the His-tag sequence and Enterokinase digestion site. The MMP-8 Catalytic domain expression was induced by the addition of IPTG (Isopropyl-β-D-thiogalactopyranoside), and the cell pellet containing MMP-8 Catalytic domain was obtained. […] Isolation of MMP-8 from the cell pellet was used by general techniques. After the cell pellet was dissolved in 6M urea, the solution was loaded onto a metal-chelating matrix. Subsequently, dialysis was used to remove urea and refold of MMP=8. And then active MMP-8 was obtained.
as §1, §2, §3, §4, §5, §6, §7, §8

Data set [3] has as its target T3, MMP-2 (Homo sapiens, UniProt P08253).
T3 construct: purchased Calbiochem-Novabiochem International, Inc
T3 sequence (P08253 110-660): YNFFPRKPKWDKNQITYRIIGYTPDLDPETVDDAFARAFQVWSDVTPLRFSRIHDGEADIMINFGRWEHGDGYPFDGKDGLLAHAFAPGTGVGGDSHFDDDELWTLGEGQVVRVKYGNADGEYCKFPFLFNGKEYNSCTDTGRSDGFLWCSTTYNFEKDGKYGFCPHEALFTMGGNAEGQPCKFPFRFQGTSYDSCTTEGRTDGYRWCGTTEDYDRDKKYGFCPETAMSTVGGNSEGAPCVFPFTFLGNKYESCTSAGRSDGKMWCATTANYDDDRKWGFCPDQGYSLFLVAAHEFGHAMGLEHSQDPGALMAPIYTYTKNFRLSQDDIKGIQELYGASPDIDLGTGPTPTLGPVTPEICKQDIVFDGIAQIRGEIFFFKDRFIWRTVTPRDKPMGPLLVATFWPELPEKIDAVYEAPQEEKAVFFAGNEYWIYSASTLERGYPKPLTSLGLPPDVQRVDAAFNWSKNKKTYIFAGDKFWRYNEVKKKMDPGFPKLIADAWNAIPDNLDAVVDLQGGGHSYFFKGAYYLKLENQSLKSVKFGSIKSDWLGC
Description: Assay for inhibitory activities on MMPs (fluorogenic peptide substrate), MMP-2. Type of data set: biochemical. As for the experimental part: MMP-2 was purchased from Calbiochem-Novabiochem International, Inc.
as §1, §2, §3, §4, §5, §6, §7, §8

Data set [4] deals with Lewis mouse lung carcinoma cells. Description: Antitumor efficacy using artificial lung metastasis of Lewis mouse lung carcinoma. It is filed as in vivo, BDF1 mice. The conditions noted are these: for inhibition in vivo at 20 mg/kg / inhibition in vivo at 200 mg/kg / inhibition in vivo at 2 mg/kg: Mus musculus, po, 336 h, read-out: Inhibition (%). The protocol:
Lewis mouse lung carcinoma cells (4×10^5 cells) were inoculated into the tail vein of BDF1 mice. […] The doses of the compounds were 20 and 200 mg/kg or 2 and 20 mg/kg. At 14 day after tumor inoculation, tumor nodules formed in the lung of the treated mice were counted and the antitumor efficacy was evaluated.

[5] abbreviates: experiment 3-2, 20 mg/kg oral, five times, lung tumor nodules at day 14.
Where [6] appears, read: experiment 3-2, 200 mg/kg oral, five times, lung tumor nodules at day 14.
The mark [7] stands for this setting: experiment 3-1, 20 mg/kg oral, five times, lung tumor nodules at day 14.
Where [8] appears, read: experiment 3-1, 200 mg/kg oral, five times, lung tumor nodules at day 14.
The mark [9] stands for this setting: experiment 3-3, 2 mg/kg oral, five times, lung tumor nodules at day 14.
Setting [10] is: experiment 3-3, 20 mg/kg oral, five times, lung tumor nodules at day 14.

T1 sequence (P14780 94-707): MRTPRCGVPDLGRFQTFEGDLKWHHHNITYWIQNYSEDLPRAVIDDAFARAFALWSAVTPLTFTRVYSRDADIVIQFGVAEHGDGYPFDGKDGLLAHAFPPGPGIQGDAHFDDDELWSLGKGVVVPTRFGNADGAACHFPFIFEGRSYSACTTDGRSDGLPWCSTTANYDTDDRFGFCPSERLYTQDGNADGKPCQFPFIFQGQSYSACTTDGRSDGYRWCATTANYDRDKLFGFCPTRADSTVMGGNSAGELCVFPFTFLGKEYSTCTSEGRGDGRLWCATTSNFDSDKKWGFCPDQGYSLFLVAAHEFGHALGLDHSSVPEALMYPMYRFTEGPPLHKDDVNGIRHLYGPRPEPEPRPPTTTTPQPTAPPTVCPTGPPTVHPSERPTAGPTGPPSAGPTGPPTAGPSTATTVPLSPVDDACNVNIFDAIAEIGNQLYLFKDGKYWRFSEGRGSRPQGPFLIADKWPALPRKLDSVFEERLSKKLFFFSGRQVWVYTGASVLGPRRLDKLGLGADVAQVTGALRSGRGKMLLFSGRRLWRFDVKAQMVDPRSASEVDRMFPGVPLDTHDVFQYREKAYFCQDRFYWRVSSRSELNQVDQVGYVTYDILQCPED

Turning to `O=C(O)[C@@H](Cc1ccccc1)NS(=O)(=O)c1ccc(-c2nc(-c3ccccc3)no2)cc1` [Compound A-2], the melting point fell in the range of 221 to 222 °C. The pIC50 in data set [1] is less than 6.00. Moreover, the pIC50 in data set [2] is less than 6.00. The pIC50 in data set [3] is 7.28.

Take `Cc1ccc(-c2noc(-c3ccc(S(=O)(=O)N[C@H](Cc4ccccc4)C(=O)O)cc3)n2)cc1` [Compound A-3]: the negative logarithm of the IC50 (pIC50) in data set [1] was 6.42; in data set [2] it was 6.11; in data set [3] it was 7.82.

For the compound `C[C@@H](NS(=O)(=O)c1ccc(-c2nc(-c3ccc(F)cc3)no2)cc1)C(=O)O` [Compound A-6], the pIC50 was less than 6.00 in data set [1], less than 6.00 in data set [2] and 7.30 in data set [3]. The inhibition in vivo at 20 mg/kg in data set [4] (setting [5]) was 26%. Also, the inhibition in vivo at 200 mg/kg in data set [4] (setting [6]) was found to be 57%. For the same compound, the “Number of colonies (Mean ± SD)” value came to 40.8 ± 13.5 in data set [4] (setting [5]) and 24.0 ± 9.7 in data set [4] (setting [6]).

For `O=C(O)[C@@H](Cc1c[nH]c2ccccc12)NSOOc1ccc(-c2nnn(-c3ccccc3)n2)cc1` [Compound B-1, reference compound], the inhibition in vivo at 20 mg/kg in data set [4] (setting [7]) came out at 38%; in data set [4] (setting [5]) it was 37%; in data set [4] (setting [10]), 39%. The inhibition in vivo at 200 mg/kg in data set [4] (setting [8]) came to 46%; in data set [4] (setting [6]), 31%. In addition, in data set [4] (setting [9]), the inhibition in vivo at 2 mg/kg amounted to 14%. Moreover, the “Number of colonies (Mean ± SD)” value in data set [4] (setting [7]) is listed as 26.5 ± 19.5; in data set [4] (setting [8]), 23.0 ± 7.6; in data set [4] (setting [5]), 34.8 ± 14.5; in data set [4] (setting [6]), 38.3 ± 20.7; in data set [4] (setting [9]), 53.5 ± 18.5; in data set [4] (setting [10]) it was 37.5 ± 13.0.

Regarding `C[C@@H](NS(=O)(=O)c1ccc(-c2nc(-c3ccccc3)no2)cc1)C(=O)O` [Compound A-10], the results for the pIC50 in data set [1], in data set [2] and in data set [3] were less than 6.00, less than 6.00 and 7.19, respectively. For the same compound, the inhibition in vivo at 20 mg/kg in data set [4] (setting [7]) stood at 43%. Also, the inhibition in vivo at 200 mg/kg in data set [4] (setting [8]) amounted to 41%. Besides, the “Number of colonies (Mean ± SD)” value in data set [4] (setting [7]) is 24.5 ± 7.8; in data set [4] (setting [8]) it was 25.2 ± 17.0.

In the case of `CCc1ccc(-c2noc(-c3ccc(S(=O)(=O)N[C@H](Cc4ccccc4)C(=O)O)cc3)n2)cc1` [Compound A-7], the pIC50 in data set [1] is 7.11; in data set [2], less than 6.00; in data set [3], 8.10. For the same compound, the inhibition in vivo at 20 mg/kg in data set [4] (setting [7]) was 56%. The inhibition in vivo at 200 mg/kg in data set [4] (setting [8]) came to 49%. The results for the “Number of colonies (Mean ± SD)” value in data set [4] (setting [7]) and in data set [4] (setting [8]) were 18.8 ± 6.9 and 21.7 ± 9.6, respectively.

Regarding `O=C(O)[C@@H](Cc1c[nH]c2ccccc12)NS(=O)(=O)c1ccc(-c2nc(-c3ccccc3)no2)cc1` [Compound A-9], the negative-log IC50 (pIC50) is 6.25 in data set [1], less than 6.00 in data set [2] and 7.74 in data set [3]. The inhibition in vivo at 20 mg/kg in data set [4] (setting [5]) worked out at 30%. For the same compound, the inhibition in vivo at 200 mg/kg in data set [4] (setting [6]) was 51%. In addition, the “Number of colonies (Mean ± SD)” value worked out at 38.7 ± 5.8 in data set [4] (setting [5]) and 27.0 ± 9.7 in data set [4] (setting [6]).

On to `Cc1ccc(-c2noc(-c3ccc(S(=O)(=O)N[C@@H](Cc4ccccc4)C(=O)O)cc3)n2)cc1` [Compound A-8], for which the pIC50 in data set [1] is 6.32; in data set [2] it was less than 6.00; in data set [3], 7.29. In addition, in data set [4], the inhibition in vivo at 20 mg/kg was determined as 56%. Moreover, the inhibition in vivo at 200 mg/kg in data set [4] is 63%. In addition, the “Number of colonies (Mean ± SD)” value is 18.8 ± 11.4 in data set [4] (setting [7]) and 15.7 ± 5.5 in data set [4] (setting [8]).

On to `C[C@@H](NS(=O)(=O)c1ccc(-c2nc(-c3ccc(Cl)cc3)no2)cc1)C(=O)O` [Compound A-4], for which the negative-log IC50 (pIC50) is 6.72 in data set [1], less than 6.00 in data set [2] and 7.59 in data set [3]. Also, the inhibition in vivo at 20 mg/kg in data set [4] is 55%. Besides, the inhibition in vivo at 200 mg/kg in data set [4] came to 46%. Moreover, the “Number of colonies (Mean ± SD)” value turned out to be 19.2 ± 9.4 in data set [4] (setting [7]) and 23.3 ± 12.8 in data set [4] (setting [8]).

Take `CC(C)[C@@H](NS(=O)(=O)c1ccc(-c2nc(-c3cccs3)no2)cc1)C(=O)O` [Compound A-5]: the pIC50 is less than 6.00 in data set [1], 6.21 in data set [2] and 7.52 in data set [3]. In addition, the inhibition in vivo at 20 mg/kg in data set [4] (setting [5]) turned out to be 24%. In addition, in data set [4] (setting [6]), the inhibition in vivo at 200 mg/kg worked out at 37%. In addition, the “Number of colonies (Mean ± SD)” value in data set [4] (setting [5]) amounted to 41.8 ± 22.5; in data set [4] (setting [6]), 34.8 ± 12.1.

Take `Cc1ccc(-c2noc(-c3ccc(S(=O)(=O)N[C@@H](C(=O)O)C(C)C)cc3)n2)s1` [Compound A-93]: the pIC50 was 7.33 in data set [1], 7.06 in data set [2] and 8.22 in data set [3]. Moreover, the inhibition in vivo at 2 mg/kg in data set [4] was 41%. Moreover, the inhibition in vivo at 20 mg/kg in data set [4] was 50%. The “Number of colonies (Mean ± SD)” value in data set [4] (setting [9]) is 36.3 ± 9.2; in data set [4] (setting [10]) it was 30.8 ± 10.8.

`Cc1ccc(-c2noc(-c3ccc(S(=O)(=O)N[C@H](C)C(=O)O)cc3)n2)cc1` [Compound A-1]: the melting point lay in the range of 200 to 203 °C. In data set [1], this compound had a pIC50 of 6.33. Further, the pIC50 in data set [2] was less than 6.00. Also, in data set [4] (setting [7]), the inhibition in vivo at 20 mg/kg is 53% and the “Number of colonies (Mean ± SD)” value is 20.2 ± 13.3. In addition, in data set [4] (setting [8]), the inhibition in vivo at 200 mg/kg is 69% and the “Number of colonies (Mean ± SD)” value turned out to be 13.3 ± 11.8. Moreover, the pIC50 in data set [3] was 7.52.
